# Assay results from patent US10946012B2, “Methods for inducing tumor regression, inhibiting tumor growth, and inducing apoptosis in breast tumors with geranylgeranyltransferase I inhibitors” (H. Lee Moffitt Cancer Center and Research Institute, Inc., priority 2009, dated 2021).
# How the values were obtained:
# [1] = system: MDA-MB-468 breast cancer cells; assay: Trypan Blue exclusion assay (proliferation, cell death) in MDA-MB-468 cells; assay type: cell-based, human
# Experimental: (§1) Human MDA-MB-468 and MDA-MB-231 breast cancer cells and murine NIH 3T3 cells were obtained from the ATCC and cultured in DMEM medium. Human SK-Br3 and BT-474 breast cancer cells (ATCC) were cultured in McCoy's 5a medium and Hybri-Care medium, respectively. Mouse embryonic fibroblast (MEF) cells from p27 wild-type and p27 null mice were grown in DMEM. All media were supplemented with 10% fetal calf serum, 10 units/ml penicillin, and 10 μg/ml streptomycin. Subconfluent cells were treated with different concentrations of GGTI, FTI or DMSO vehicle for specific time periods. After treatment, cells were harvested by trypsinization.
# Pre-designed siRNA to p27 (Cat #118714) and the negative control (Cat #4611) were purchased from Ambion (Austin, Tex.). Twenty-four hours before transfection, MDA-MB-468 cells were plated onto twelve-well plates in fresh DMEM medium containing 10% FBS and no antibiotics. Transient transfection of siRNA was carried out using Oligofectamine reagent (Invitrogen, Carlsbad, Calif.), following the manufacturer's instructions. In brief, 5 nM of p27 siRNA or control siRNA were mixed with Opti-MEM medium (Invitrogen) in such a way so that the total volume went to 90 μl, and then complexed with a mixture of 2 μl of Oligofectamine and 8 μl Opti-MEM; the total volume of RNA:Oligofectamine complex was 100 μl. The RNA:Oligofectamine complex was then incubated for 20 min at room temperature before adding to the cells. Before transfection, the old medium was discarded, cells were washed once with fresh Opti-MEM and 400 μl of fresh Opti-MEM placed into each well before adding the RNA:Oligofectamine complex to each well. The final diluted volume on each well was 500 μl. After 8 h, 500 μl DMEM containing 30% FBS was added to each well and cells were further incubated for 40 h.
# (§2) Adherent cells were harvested by trypsinization and diluted with 0.4% Trypan Blue dye and counted on a hemacytometer. Cells excluding the dye were scored as live cells, whereas cells absorbing the dye were scored as dead cells. Cell proliferation was determined by dividing the number of live cells in the treated sample by the number of live cells in the control, and the degree of cell death was expressed as percentage of dead cells of the total cell number.
# [2] = system: p27; assay: Western blot / immunoprecipitation of p27 and prenylated proteins in MDA-MB-468 cells; assay type: cell-based, human; design: Rap1 geranylgeranylation / HDJ-2 farnesylation / processing / p27 protein levels: dose or concentration left out as unconfirmed
# Experimental: MDA-MB-468 cells were lysed using CelLytic™ M Cell Lysis Reagent (Sigma-Aldrich, St. Louis, Mo.) containing protease inhibitor cocktail, 2 mM phenylmethylsulfonylfluoride (PMSF), 2 mM Na3VO4, and 6.4 mg/ml p-nitrophenylphosphate (Sigma-Aldrich). Lysates were incubated overnight with p27 antibody (BD Biosciences, San Jose, Calif.) at 4° C. while rocking; after incubation protein A anti-IgG agarose beads were added and incubated for 2 h at 4° C., then washed four times with an excess of lysis buffer. Samples were then boiled at 100° C. for 10 min in 2×SDS-sample buffer and analyzed by Western blotting as described below.
# To prepare whole cell lysates, cells were trypsinized, washed with phosphate buffered saline (PBS) twice, and lysed in 30 mM Hepes, pH 7.5, 10 mM NaCl, 5 mM MgCl2, 25 mM NaF, 1 mM EGTA, 1% Triton-X-100, 10% glycerol, protease inhibitor cocktail, 2 mM PMSF, 2 mM Na3VO4, and 6.4 mg/ml p-nitrophenylphosphate. Lysates were cleared by centrifugation at 12,000×g for 15 min, and the supernatants were collected as whole cell extracts. The protein concentration was determined by the Bradford assay. Proteins were separated by SDS-PAGE and transferred to nitrocellulose membranes, which were then blotted with antibodies specific for whole Rap1 or unprenylated Rap1, Ras, the C-terminal region of pRb, Akt (Santa Cruz Biotechnology, Santa Cruz, Calif.), phospho-Akt(S473) (Cell Signaling, Danvers, Mass.), p27 (BD Biosciences, San Jose, Calif.), phospho-p27(T187) (Invitrogen, Carlsbad, Calif.), HDJ-2 (Lab Vision Corporation, Fremont, Calif.), phosphotyrosine (Millipore, Billerica, Mass.), and β-actin (Sigma-Aldrich, St. Louis, Mo.). Select bands were quantified using AlphaEaseFC densitometry software (AlphaInnotech, San Leandro, Calif.).
# [3] = system: p27 null MEFs; assay: Trypan Blue exclusion assay in p27 null MEFs; assay type: cell-based, mouse; settings: 50 μM, 72 h
# Experimental: as §1, §2
# [4] = system: p27; assay: Immunofluorescence of p27 in MDA-MB-468 cells; assay type: cell-based, human; settings: 50 μM, 48 h
# Experimental: MDA-MB-468 cells were plated on a glass coverslip and treated with 50 μM GGTI-2417 or DMSO as a control for 48 h. Medium was aspirated and the cells were washed twice with ice-cold sterile DPBS solution (Invitrogen, Carlsbad, Calif.), fixed with 4% paraformaldehyde at room temperature for 15 min, and then treated with 1% Nonidet P-40 for 30 min at room temperature. After blocking with 5% bovine serum albumin for 30 min at room temperature, cells were incubated with anti-p27 antibody (1:500) at room temperature for 1 h. After washing three times with DPBS solution, cells were incubated with FITC-conjugated secondary antibody (1:1000) for 1 h at room temperature. Cells were then washed three times with sterile DPBS solution, mounted using Vectashield mounting reagent (Vector Laboratories, Inc., Burlingame, Calif.) containing 4′,6′-diamidino-2-phenylindole (DAPI) for nuclear visualization, and analyzed using a Zeiss Axiovert Z-1 Imager microscope (Carl Zeiss, Oberkochen, Germany) at […]. Images were analyzed using ImagePro Plus 6.2 (Media Cybernetics, Bethesda, Md.).
# [5] = system: p27 wild-type MEFs; assay: Trypan Blue exclusion assay in p27 wild-type MEFs; assay type: cell-based, mouse; settings: 50 μM, 72 h, p27 wt MEFs
# Experimental: as §1, §2
structure (smiles),measurement,setting,value
COC(=O)[C@H](CC(C)C)NC(=O)N1CCN(Cc2nc[nH]c2C)C(=O)[C@@H]1Cc1ccccc1 [GGTI-2417],tumor cell death in the presence of p27 siRNA,"[1]; 5 nM p27 siRNA, 50 μM GGTI-2417 or 1 μM taxol",unable to induce tumor cell death
same,tumor cell death,"[1]; 50 μM, absence of p27 siRNA, vehicle 10.3%",37.2%
same,IC50,"[1]; MDA-MB-468, 48 h, read-out: IC50, inhibition of cell proliferation",~4 µM
same,increase of p27 Tyr phosphorylation,"[2]; 50 μM, MDA-MB-468",3.5 fold
same,increase of p27 amounts (immunoprecipitated p27),"[2]; 50 μM, MDA-MB-468",11.9 fold
same,HDJ-2 farnesylation / processing,"[2]; MDA-MB-468, 48 h",not the farnesylation of HDJ-2
same,Rap1 geranylgeranylation,"[2]; MDA-MB-468, 48 h",inhibited the geranylgeranylation of Rap1
same,p27 protein levels,"[2]; MDA-MB-468, 48 h",increased p27 protein levels in a time-dependent manner
same,inhibition of proliferation,[3]; MEFs lacking p27,61.6±8.1%
same,cell death,"[3]; p27 null MEFs, basal 27.5±2.1%",did not increase the number of dead cells
same,cytosolic p27 levels,[4],not affected significantly
same,increase of nuclear levels of p27,[4],6 fold
same,inhibition of proliferation,[5],89.0±3.1%
same,cell death,[5]; vehicle 22.4±7.2%,53.4±7.0%
